Results on four molecules are retold here after patent US6790836B2, “Process for preparing indolopyrrolocarbazole derivatives, intermediates therefor, and preparation process of the intermediates” (Banyu Pharmaceutical Co., Ltd., priority 2000, dated 2004).

The assay deals with T1, topoisomerase I (Homo sapiens, UniProt P11387).
T1 sequence (P11387 1-765): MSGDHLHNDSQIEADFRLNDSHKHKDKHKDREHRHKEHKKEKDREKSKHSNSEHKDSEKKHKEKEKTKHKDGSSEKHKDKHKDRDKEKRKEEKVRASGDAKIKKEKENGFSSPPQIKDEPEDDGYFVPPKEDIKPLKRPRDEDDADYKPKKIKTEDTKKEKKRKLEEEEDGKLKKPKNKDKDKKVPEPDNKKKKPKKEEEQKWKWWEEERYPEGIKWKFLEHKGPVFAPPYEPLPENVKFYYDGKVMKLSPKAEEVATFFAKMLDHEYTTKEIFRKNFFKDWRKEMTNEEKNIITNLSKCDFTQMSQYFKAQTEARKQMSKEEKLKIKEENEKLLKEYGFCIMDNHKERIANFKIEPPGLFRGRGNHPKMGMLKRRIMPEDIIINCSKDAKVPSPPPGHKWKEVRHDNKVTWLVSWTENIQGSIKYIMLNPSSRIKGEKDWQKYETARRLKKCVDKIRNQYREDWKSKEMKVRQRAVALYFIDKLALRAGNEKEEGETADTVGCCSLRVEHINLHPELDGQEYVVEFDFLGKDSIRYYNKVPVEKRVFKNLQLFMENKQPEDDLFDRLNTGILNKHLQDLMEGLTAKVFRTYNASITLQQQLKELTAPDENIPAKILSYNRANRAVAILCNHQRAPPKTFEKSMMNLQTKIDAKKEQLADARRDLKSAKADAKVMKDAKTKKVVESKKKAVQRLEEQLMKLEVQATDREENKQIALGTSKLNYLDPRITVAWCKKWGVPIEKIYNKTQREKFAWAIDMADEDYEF
Briefly: Topoisomerase I-inhibiting activity. The assay is classed as biochemical. Conditions: concentration of a compound needed to inhibit topoisomerase I activity by 50%. Here is the method:
Topoisomerase I-inhibiting activity was assayed by the method described in Yoshinari, T et al., Cancer Research, vol. 55, page 1310 (1995).
In the table, EC50 means the concentration of a compound needed to inhibit topoisomerase I activity by 50%.

Molecule `O=C1c2c(c3c4ccc(OCc5ccccc5)cc4n(C4OC(COCc5ccccc5)C(OCc5ccccc5)C(OCc5ccccc5)C4OCc4ccccc4)c3c3[nH]c4cc(OCc5ccccc5)ccc4c23)C(=O)N1NC(CO)CO` [Example 2, 12,13-dihydro-2,10-dibenzyloxy-6-N-(1-hydroxymethyl-2-hydroxyethylamino)-13-(β-D-2,3,4,6-tetra-O-benzylglucopyranosyl)-5H-indolo[2.3-a]pyrrolo[3,4-c]-carbazole-5,7(6H)-dione] had an EC50 greater than 1000 µM. The molecule `CN1C(=O)c2c(c3c4ccc(O)cc4n([C@@H]4O[C@H](CO)[C@@H](O)[C@H](O)[C@H]4O)c3c3[nH]c4cc(O)ccc4c23)C1=O` [Compound [b]] came in with an EC50 of 0.68 µM. Molecule `O=C1OC(=O)c2c1c1c3ccc(O)cc3[nH]c1c1c2c2ccc(O)cc2n1C1OC(CO)C(O)C(O)C1O` (stereo not shown) [Compound [c]] gave an EC50 of 0.18 µM. Regarding `O=C1OC(=O)c2c1c1c3ccc(OCc4ccccc4)cc3[nH]c1c1c2c2ccc(OCc3ccccc3)cc2n1C1OC(COCc2ccccc2)C(OCc2ccccc2)C(OCc2ccccc2)C1OCc1ccccc1` [Example 1, 12,13-dihydro-2,10-dibenzyloxy-13-(β-D-2,3,4,6-tetra-O-benzylglucopyranosyl)-5H-indolo[2,3-a]carbazole-5,6-dicarboxylic anhydride], the EC50 is greater than 1000 µM.

The EC50 is the concentration at which the effect is half-maximal. Lower therefore signals higher potency in that assay.
